Experiment [1] addresses isolated recombinant JAK1 kinase domain (Homo sapiens (Human), UniProt P23458). Briefly: JAK1 enzyme assay (Caliper LabChip, peptide phosphorylation). In kind it is biochemical. To be noted: isolated recombinant JAK1 kinase domain, 25 μM ATP.
In experiment [2] the target is isolated recombinant JAK2 kinase domain (Homo sapiens (Human), UniProt O60674). Briefly: JAK2 enzyme assay (Caliper LabChip, peptide phosphorylation). To be noted: 25 μM ATP. In kind it is biochemical.
isolated recombinant JAK2 kinase domain, sequence (O60674 849-1124): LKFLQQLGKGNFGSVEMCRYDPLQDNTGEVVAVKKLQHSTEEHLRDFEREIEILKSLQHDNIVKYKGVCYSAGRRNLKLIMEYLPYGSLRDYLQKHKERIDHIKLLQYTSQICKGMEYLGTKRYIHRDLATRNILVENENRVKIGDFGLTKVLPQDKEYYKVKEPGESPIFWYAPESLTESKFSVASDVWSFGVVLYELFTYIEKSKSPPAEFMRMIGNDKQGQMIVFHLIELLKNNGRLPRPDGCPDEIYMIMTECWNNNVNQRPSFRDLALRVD
The test system of experiment [3] is JAK1-dependent STAT6 phosphorylation downstream of IL-13 stimulation in TF-1 human erythroleukemia cells. Nature of the experiment: JAK1 pathway assay in TF-1 cells (IL-13-pSTAT6, MSD). In kind it is cell-based. As to conditions: Homo sapiens, TF-1, TF-1 cells, read-out: IL13-pSTAT6 EC50_TF-1. As to the method:
JAK1 Pathway Assay in Cell Lines was Carried Out as Follows:
Inhibitor potency (EC50) was determined in cell-based assays designed to measure JAK1 dependent STAT phosphorylation.
In one assay approach, TF-1 human erythroleukemia cells obtained from the American Type Culture Collection (ATCC; Manassas, Va.) were used to measure JAK1-dependent STAT6 phosphorylation downstream of IL-13 stimulation. Prior to use in the assays, TF-1 cells were starved of GM-CSF overnight in OptiMEM medium (Life Technologies, Grand Island, N.Y.) supplemented with 0.5% charcoal/dextran stripped fetal bovine serum (FBS), 0.1 mM non-essential amino acids (NEAA), and 1 mM sodium pyruvate. The assays were run in 384-well plates in serum-free OptiMEM medium using 300,000 cells per well. In a second assay approach, BEAS-2B human bronchial epithelial cells obtained from ATCC were plated at 100,000 cells per well of a 96-well plate one day prior to the experiment. The BEAS-2B assay was run in complete growth medium (bronchial epithelial basal medium plus bulletkit; Lonza; Basel, Switzerland).
Test compounds were serially diluted 1:2 in DMSO and then diluted 1:50 in medium just before use. Diluted compounds were added to the cells, for a final DMSO concentration of 0.2%, and incubated for 30 min (for the TF-1 assay) or 1 hr (for the BEAS-2B assay) at 37° C. Then, cells were stimulated with human recombinant cytokine at their respective EC90 concentrations, as previously determined for each individual lot. Cells were stimulated with IL-13 (R&D Systems, Minneapolis, Minn.) for 15 min at 37° C. The TF-1 cell reactions were stopped by the direct addition of 10× lysis buffer (Cell Signaling Technologies, Danvers, Mass.), whereas the BEAS-2B cell incubations were halted by the removal of medium and addition of 1× lysis buffer. The resultant samples were frozen in the plates at −80° C. Compound mediated inhibition of STAT6 phosphorylation was measured in the cell lysates using MesoScale Discovery (MSD) technology (Gaithersburg, Md.).

Counter-ions that a name gives are not always drawn.

isolated recombinant JAK1 kinase domain, sequence (P23458 875-1153): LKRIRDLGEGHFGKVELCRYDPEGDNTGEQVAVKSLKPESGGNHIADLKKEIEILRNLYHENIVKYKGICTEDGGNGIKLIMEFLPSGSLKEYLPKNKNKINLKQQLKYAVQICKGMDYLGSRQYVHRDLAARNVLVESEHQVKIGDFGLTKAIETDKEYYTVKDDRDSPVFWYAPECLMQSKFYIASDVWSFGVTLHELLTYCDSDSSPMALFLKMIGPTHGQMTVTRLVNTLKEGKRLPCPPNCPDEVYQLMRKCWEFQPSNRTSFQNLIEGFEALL

Broadly, the Ki is a measure of affinity in units of concentration, obtained from inhibition or displacement. `O=C(Nc1cn(C2CCNCC2)nc1-c1cc(Cl)ccc1OC(F)F)c1cnn2cccnc12` [Example 1, Pyrazolo[1,5-a]pyrimidine-3-carboxylic acid [3-(5-chloro-2-difluoromethoxyphenyl)-1-piperidin-4-yl-1H-pyrazol-4-yl]amide hydrochloride]: the Ki is 1.62 nM in experiment [1] and 0.46 nM in experiment [2]. Further, in experiment [3], the EC50 came out at 21.1 nM.

In the case of `O=C(Nc1cn(CC(=O)N2C[C@H]3CNC[C@H]3C2)nc1-c1cc(Cl)ccc1OC(F)F)c1cnn2cccnc12` [Example 4, Cis-pyrazolo[1,5-a]pyrimidine-3-carboxylic acid {3-(5-chloro-2-difluoromethoxyphenyl)-1-[2-(hexahydropyrrolo[3,4-c]pyrrol-2-yl)-2-oxoethyl]-1H-pyrazol-4-yl}amide], the Ki was 0.66 nM in experiment [1] and 0.8 nM in experiment [2]. Also, the EC50 in experiment [3] is 547 nM.

Turning to `CCN1C[C@@H]2CN(C(=O)Cn3cc(NC(=O)c4cnn5cccnc45)c(-c4cc(Cl)ccc4OC(F)F)n3)C[C@@H]2C1` [Example 5, Cis pyrazolo[1,5-a]pyrimidine-3-carboxylic acid {3-(5-chloro-2-difluoromethoxyphenyl)-1-[2-(5ethyl-hexahydro-pyrrolo[3,4-c]pyrrol-2-yl)-2-oxoethyl]-1H-pyrazol-4-yl}amide hydrochloride], the results for the Ki in experiment [1] and in experiment [2] were 0.84 nM and 0.78 nM, respectively. Moreover, the EC50 in experiment [3] came out at 11.1 nM.

As for `O=C(Nc1cn(CC(=O)N2C[C@H]3CN(CC4CC4)C[C@H]3C2)nc1-c1cc(Cl)ccc1OC(F)F)c1cnn2cccnc12` [Example 6, Cis-pyrazolo[1,5-a]pyrimidine-3-carboxylic acid {3-(5-chloro-2-difluoromethoxyphenyl)-1-[2-(5-cyclopropylmethylhexahydropyrrolo[3,4-c]pyrrol-2-yl)-2-oxoethyl]-1H-pyrazol-4-yl}amide], the Ki turned out to be 0.71 nM in experiment [1] and 0.75 nM in experiment [2]. The EC50 in experiment [3] came to 5.9 nM.

For the compound `CN1C[C@@H]2CN(C(=O)Cn3cc(NC(=O)c4cnn5ccc(N)nc45)c(-c4cc(Cl)ccc4OC(F)F)n3)C[C@@H]2C1` [Example 7, 5-Amino-pyrazolo[1,5-a]pyrimidine-3-carboxylic acid {3-(5-chloro-2-difluoromethoxy-phenyl)-1-[2-((3aR,6aS)-5-methyl-hexahydro-pyrrolo[3,4-c]pyrrol-2-yl)-2-oxo-ethyl]-1H-pyrazol-4-yl}-amide hydrochloride], the Ki in experiment [1] is 1.1 nM; in experiment [2], 0.96 nM. Also, the EC50 in experiment [3] was 1040 nM.

Turning to `Cc1cnc2c(C(=O)Nc3cn(CC(=O)N4C[C@H]5CN(C)C[C@H]5C4)nc3-c3cc(Cl)ccc3OC(F)F)cnn2c1` [Example 8, 6-Methyl-pyrazolo[1,5-a]pyrimidine-3-carboxylic acid {3-(5-chloro-2-difluoromethoxy-phenyl)-1-[2-((3aR,6aS)-5-methyl-hexahydro-pyrrolo[3,4-c]pyrrol-2-yl)-2-oxo-ethyl]-1H-pyrazol-4-yl}-amide hydrochloride], the results for the Ki in experiment [1] and in experiment [2] were 96.3 nM and 120 nM, respectively. For the same compound, the EC50 in experiment [3] turned out to be 746 nM.

For the compound `CCN1CC2CN(C(=O)Cn3cc(NC(=O)c4c(N)nn5cccnc45)c(-c4cc(Cl)ccc4OC(F)F)n3)CC2C1` (centres unmarked) [Example 11, 2-amino-N-[3-[5-chloro-2-(difluoromethoxy)phenyl]-1-[2-(2-ethyl-1,3,3a,4,6,6a-hexahydropyrrolo[3,4-c]pyrrol-5-yl)-2-oxo-ethyl]pyrazol-4-yl]pyrazolo[1,5-a]pyrimidine-3-carboxamide], the Ki in experiment [1] turned out to be 1.05 nM; in experiment [2] it was 0.3 nM. For the same compound, the EC50 in experiment [3] was 11.8 nM.

As to `CC(C)N1C[C@H]2CN(C(=O)Cn3cc(NC(=O)c4cnn5cccnc45)c(-c4cc(Cl)ccc4OC(F)F)n3)C[C@H]2C1` [Example 12, N-[1-[2-[(3aS,6aR)-2-isopropyl-1,3,3a,4,6,6a-hexahydropyrrolo[3,4-c]pyrrol-5-yl]-2-oxo-ethyl]-3-[5-chloro-2-(difluoromethoxy)phenyl]pyrazol-4-yl]pyrazolo[1,5-a]pyrimidine-3-carboxamide], the figures for the Ki in experiment [1] and in experiment [2] were 1.3 nM and 1.17 nM, respectively. In experiment [3], the EC50 turned out to be 15 nM.

For `CN(C)C(=O)N1CCC(CN2C[C@@H]3CN(C(=O)Cn4cc(NC(=O)c5cnn6cccnc56)c(-c5cc(Cl)ccc5OC(F)F)n4)C[C@@H]3C2)CC1` [Example 36, N-[1-[2-[(3aR,6aS)-2-[[1-(dimethylcarbamoyl)-4-piperidyl]methyl]-1,3,3a,4,6,6a-hexahydropyrrolo[3,4-c]pyrrol-5-yl]-2-oxo-ethyl]-3-[5-chloro-2-(difluoromethoxy)phenyl]pyrazol-4-yl]pyrazolo[1,5-a]pyrimidine-3-carboxamide], the Ki in experiment [2] amounted to 0.62 nM. Further, in experiment [3], the EC50 worked out at 57.6 nM.

With `Nc1nn2cccnc2c1C(=O)Nc1cn(CC(=O)N2C[C@H]3CN(CC4CC4)C[C@H]3C2)nc1-c1cc(Cl)ccc1OC(F)F` [Example 57, N-[1-[2-[(3aS,6aR)-2-(cyclopropylmethyl)-1,3,3a,4,6,6a-hexahydropyrrolo[3,4-c]pyrrol-5-yl]-2-oxo-ethyl]-3-[5-chloro-2-(difluoromethoxy)phenyl]pyrazol-4-yl]-2-amino-pyrazolo[1,5-a]pyrimidine-3-carboxamide], the Ki in experiment [2] came to 0.13 nM. In addition, the EC50 in experiment [3] was 15 nM.

Turning to `Nc1nn2cccnc2c1C(=O)Nc1cn(C2CCCNCC2)nc1-c1cc(Cl)ccc1OC(F)F` (centres unmarked) [Example 171, 2-amino-N-[1-(azepan-4-yl)-3-[5-chloro-2-(difluoromethoxy)phenyl]pyrazol-4-yl]pyrazolo[1,5-a]pyrimidine-3-carboxamide], the Ki in experiment [2] was found to be 0.17 nM. The EC50 in experiment [3] was 21.9 nM.

For the compound `O=C(Nc1cn(CC(=O)N2CCC3(CNC3)C2)nc1-c1cc(Cl)ccc1OC(F)F)c1cnn2cccnc12` [Example 219, N-[3-[5-chloro-2-(difluoromethoxy)phenyl]-1-[2-(2,6-diazaspiro[3.4]octan-6-yl)-2-oxo-ethyl]pyrazol-4-yl]pyrazolo[1,5-a]pyrimidine-3-carboxamide], in experiment [2], the Ki came out at 1.28 nM. Moreover, the EC50 in experiment [3] was found to be 1030 nM.

For the compound `O=C(Nc1sc(CN2CCCCC2)nc1-c1cc(Cl)ccc1OC(F)F)c1cnn2cccnc12` [Example 263, N-[4-[5-chloro-2-(difluoromethoxy)phenyl]-2-(1-piperidylmethyl)thiazol-5-yl]pyrazolo[1,5-a]pyrimidine-3-carboxamide], in experiment [1], the Ki is 1.5 nM. The EC50 in experiment [3] stood at 19.2 nM.

For `O=C(Nc1cn(CC(=O)N2CCC[C@H]2CO)nc1-c1cc(Cl)ccc1OC(F)F)c1cnn2cccnc12` [Example 268, N-[3-[5-chloro-2-(difluoromethoxy)phenyl]-1-[2-[(2S)-2-(hydroxymethyl)pyrrolidin-1-yl]-2-oxo-ethyl]pyrazol-4-yl]pyrazolo[1,5-a]pyrimidine-3-carboxamide], the Ki in experiment [1] came out at 0.49 nM. Moreover, in experiment [3], the EC50 was 5.5 nM.

With `N#CC1(c2ccccc2)CCN(C(=O)Cn2cc(NC(=O)c3cnn4cccnc34)c(-c3cc(Cl)ccc3OC(F)F)n2)CC1` [Example 281, N-[3-[5-chloro-2-(difluoromethoxy)phenyl]-1-[2-(4-cyano-4-phenyl-1-piperidyl)-2-oxo-ethyl]pyrazol-4-yl]pyrazolo[1,5-a]pyrimidine-3-carboxamide], the Ki in experiment [2] was 0.45 nM. Also, the EC50 in experiment [3] was 2.2 nM.

For the origin of these results see patent publication US9346815B2, “5-chloro-2-difluoromethoxyphenyl pyrazolopyrimidine compounds, compositions and methods of use thereof” (Genentech, Inc., priority 2014, dated 2016).
